Source: patent publication US11739100B2, “2,3-dihydro-1h-imidazo{1,2-a}pyrimidin-5-one and this 1,2,3,4-tetrahydropyrimido{1,2-a}pyrimidin-6-one derivatives comprising a substituted morpholine, preparation thereof and pharmaceutical use thereof” (SANOFI, priority 2012, dated 2023)

target: T1, recombinant Vps34 (Homo sapiens, UniProt Q8NEB9); assay: Phosphorylation of phosphatidylinositol (PI) by Vps34 in vitro, ADP detected by TR-FRET (HTRF Transcreener ADP); type: biochemical; conditions: 10 μM ATP, 55 μg/ml PI, approximately 3 nM Vps34, 1 hour at ambient temperature; absolute IC50, mean of two independent experiments; read-out: IC50 activity range
T1 construct: purchased Invitrogen PV5126
T1 sequence (Q8NEB9 whole entry): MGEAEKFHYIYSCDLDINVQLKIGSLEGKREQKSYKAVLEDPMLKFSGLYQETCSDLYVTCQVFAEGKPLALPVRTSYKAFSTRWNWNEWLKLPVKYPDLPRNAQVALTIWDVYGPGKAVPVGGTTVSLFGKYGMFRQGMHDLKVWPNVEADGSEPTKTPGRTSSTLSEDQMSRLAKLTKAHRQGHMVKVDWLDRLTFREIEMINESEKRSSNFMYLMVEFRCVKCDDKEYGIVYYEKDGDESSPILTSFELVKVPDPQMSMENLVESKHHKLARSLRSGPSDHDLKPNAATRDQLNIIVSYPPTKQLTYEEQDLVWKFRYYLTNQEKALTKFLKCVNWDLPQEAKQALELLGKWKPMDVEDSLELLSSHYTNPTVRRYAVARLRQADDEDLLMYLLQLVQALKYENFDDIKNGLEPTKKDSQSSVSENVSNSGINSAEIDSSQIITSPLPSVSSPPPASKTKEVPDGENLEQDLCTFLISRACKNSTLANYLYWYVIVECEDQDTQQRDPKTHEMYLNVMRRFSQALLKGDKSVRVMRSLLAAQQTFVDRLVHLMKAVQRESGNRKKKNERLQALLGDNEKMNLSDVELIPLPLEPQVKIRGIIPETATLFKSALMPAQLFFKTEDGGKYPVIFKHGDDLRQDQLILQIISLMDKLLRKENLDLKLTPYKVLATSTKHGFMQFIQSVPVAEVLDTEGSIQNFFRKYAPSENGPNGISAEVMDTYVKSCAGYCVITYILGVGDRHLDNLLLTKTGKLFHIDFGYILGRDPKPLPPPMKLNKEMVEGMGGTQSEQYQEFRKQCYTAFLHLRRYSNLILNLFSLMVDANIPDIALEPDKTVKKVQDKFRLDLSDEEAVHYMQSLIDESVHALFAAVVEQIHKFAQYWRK

Row | IC50 | Structure (SMILES)
1 | < 10 nM | C[C@@H]1COCCN1c1cc(=O)n2c(n1)N(Cc1ccnc(Cl)c1)[C@](C)(C(F)(F)F)C2 [Example 181, (S)-1-(2-Chloro-pyridin-4-ylmethyl)-2-methyl-7-((R)-3-methylmorpholin-4-yl)-2-trifluoromethyl-2,3-dihydro-1H-imidazo[1,2-a]-pyrimidin-5-one]
2 | 10 to 100 nM | C[C@@H]1COCCN1c1cc(=O)n2c(n1)N(Cc1cnco1)[C@](C)(C(F)(F)F)C2 [Example 182, (S)-2-Methyl-7-((R)-3-methylmorpholin-4-yl)-1-oxazol-5-ylmethyl-2-trifluoromethyl-2,3-dihydro-1H-imidazo[1,2-a]-pyrimidin-5-one]
3 | < 10 nM | C[C@@H]1COCCN1c1cc(=O)n2c(n1)N(Cc1cocn1)[C@](C)(C(F)(F)F)C2 [Example 183, (S)-2-Methyl-7-((R)-3-methylmorpholin-4-yl)-1-oxazol-4-ylmethyl-2-trifluoromethyl-2,3-dihydro-1H-imidazo[1,2-a]-pyrimidin-5-one]
4 | < 10 nM | C[C@@H]1COCCN1c1nc2n(c(=O)c1F)C[C@@](C)(C(F)(F)F)N2Cc1ccnc(Cl)c1 [Example 184, (S)-1-(2-Chloro-pyridin-4-ylmethyl)-6-fluoro-2-methyl-7-((R)-3-methylmorpholin-4-yl)-2-trifluoromethyl-2,3-dihydro-1H-imidazo[1,2-a]-pyrimidin-5-one]
5 | < 10 nM | CC(C)C(=O)CN1c2nc(N3CCOC[C@H]3C)c(F)c(=O)n2C[C@@]1(C)C(F)(F)F [Example 185, (S)-6-Fluoro-2-methyl-7-((R)-3-methyl-morpholin-4-yl)-1-(3-methyl-2-oxobutyl)-2-trifluoromethyl-2,3-dihydro-1H-imidazo[1,2-a]-pyrimidin-5-one]
6 | < 10 nM | C[C@@H]1COCCN1c1nc2n(c(=O)c1F)C[C@@](C)(C(F)(F)F)N2CC(=O)C1CCOCC1 [Example 186, (S)-6-Fluoro-2-methyl-7-((R)-3-methyl-morpholin-4-yl)-1-[2-oxo-2-(tetrahydro-pyran-4-yl)ethyl]-2-trifluoromethyl-2,3-dihydro-1H-imidazo[1,2-a]-pyrimidin-5-one]
7 | < 10 nM | C[C@@H]1COCCN1c1nc2n(c(=O)c1F)C[C@@](C)(C(F)(F)F)N2CC(=O)C1CC1 [Example 187, (S)-1-(2-Cyclopropyl-2-oxoethyl)-6-fluoro-2-methyl-7-((R)-3-methylmorpholin-4-yl)-2-trifluoromethyl-2,3-dihydro-1H-imidazo[1,2-a]-pyrimidin-5-one]
8 | < 10 nM | C[C@@H]1COCCN1c1nc2n(c(=O)c1F)C[C@@](C)(C(F)(F)F)N2CC(=O)c1cccnc1 [Example 189, (S)-6-Fluoro-2-methyl-7-((R)-3-methyl-morpholin-4-yl)-1-(2-oxo-2-pyridin-3-yl-ethyl)-2-trifluoromethyl-2,3-dihydro-1H-imidazo[1,2-a]-pyrimidin-5-one]
9 | < 10 nM | C[C@@H]1COCCN1c1cc(=O)n2c(n1)N(CC(=O)C1CCOCC1)[C@](C)(C(F)(F)F)C2 [Example 190, (S)-2-Methyl-7-((R)-3-methylmorpholin-4-yl)-1-[2-oxo-2-(tetrahydro-pyran-4-yl)ethyl]-2-trifluoromethyl-2,3-dihydro-1H-imidazo[1,2-a]-pyrimidin-5-one]
10 | > 100 nM | O=c1cc(N2CCOC(CF)C2)nc2n1CC[C@@H](C(F)(F)F)N2Cc1ccccc1 (stereo partly drawn) [Example 193, (S)-9-Benzyl-2-(2-fluoromethyl-morpholin-4-yl)-8-trifluoromethyl-6,7,8,9-tetrahydro-pyrimido[1,2-a]-pyrimidin-4-one]
11 | < 10 nM | CON(C)C(=O)CN1c2nc(N3CCOC[C@H]3C)cc(=O)n2CC[C@H]1C(F)(F)F [Example 196, N-Methoxy-N-methyl-2-[(S)-8-((R)-3-methyl-morpholin-4-yl)-6-oxo-2-trifluoromethyl-3,4-dihydro-2H,6H-pyrimido[1,2-a]-pyrimidin-1-yl]-acetamide]
12 | 10 to 100 nM | CONC(=O)CN1c2nc(N3CCOC[C@H]3C)cc(=O)n2CC[C@H]1C(F)(F)F [Example 197, N-Methoxy-2-[(S)-8-((R)-3-methyl-morpholin-4-yl)-6-oxo-2-trifluoromethyl-3,4-dihydro-2H,6H-pyrimido[1,2-a]-pyrimidin-1-yl]-acetamide]
13 | < 10 nM | C[C@@H]1COCCN1c1cc(=O)n2c(n1)N(c1ccncc1)[C@H](C(F)(F)F)CC2 [Example 198, (S)-2-((R)-3-Methyl-morpholin-4-yl)-9-pyridin-4-yl-8-trifluoromethyl-6,7,8,9-tetrahydro-pyrimido[1,2-a]-pyrimidin-4-one]
14 | < 10 nM | C[C@@H]1COCCN1c1nc2n(c(=O)c1F)C[C@@](C)(C(F)(F)F)N2CC(=O)c1ccccn1 [Example 199, (S)-6-Fluoro-2-methyl-7-((R)-3-methyl-morpholin-4-yl)-1-(2-oxo-2-pyridin-2-yl-ethyl)-2-trifluoromethyl-2,3-dihydro-1H-imidazo[1,2-a]-pyrimidin-5-one]
15 | < 10 nM | C[C@@H]1COCCN1c1cc(=O)n2c(n1)N(CC(C)(C)O)[C@](C)(C(F)(F)F)CC2 [Example 200, (S)-9-(2-Hydroxy-2-methylpropyl)-8-methyl-2-((R)-3-methylmorpholin-4-yl)-8-trifluoromethyl-6,7,8,9-tetrahydro-pyrimido[1,2-a]-pyrimidin-4-one]
16 | < 10 nM | CC(C)c1nc(CN2c3nc(N4CCOC[C@H]4C)cc(=O)n3CC[C@H]2C(F)(F)F)no1 [Example 201, (S)-9-(5-Isopropyl-[1,2,4]oxadiazol-3-yl-methyl)-2-((R)-3-methylmorpholin-4-yl)-8-trifluoromethyl-6,7,8,9-tetrahydro-pyrimido[1,2-a]-pyrimidin-4-one]
17 | < 10 nM | C[C@@H]1COCCN1c1cc(=O)n2c(n1)N(Cc1noc(C3CC3)n1)[C@H](C(F)(F)F)CC2 [Example 202, (S)-9-(5-Cyclopropyl-[1,2,4]oxadiazol-3-yl-methyl)-2-((R)-3-methylmorpholin-4-yl)-8-trifluoromethyl-6,7,8,9-tetrahydro-pyrimido[1,2-a]-pyrimidin-4-one]
18 | < 10 nM | C[C@@H]1COCCN1c1cc(=O)n2c(n1)N(Cc1noc(C(C)(C)C)n1)[C@H](C(F)(F)F)CC2 [Example 203, (S)-9-(5-tert-Butyl-[1,2,4]oxadiazol-3-yl-methyl)-2-((R)-3-methylmorpholin-4-yl)-8-trifluoromethyl-6,7,8,9-tetrahydro-pyrimido[1,2-a]-pyrimidin-4-one]
19 | < 10 nM | C[C@@H]1COCCN1c1nc2n(c(=O)c1F)CC[C@@H](C(F)(F)F)N2CCO [Example 204, (S)-3-Fluoro-9-(2-hydroxyethyl)-2-((R)-3-methylmorpholin-4-yl)-8-trifluoromethyl-6,7,8,9-tetrahydro-pyrimido[1,2-a]-pyrimidin-4-one]
20 | < 10 nM | C[C@H](O)CN1c2nc(N3CCOC[C@H]3C)cc(=O)n2CC[C@H]1C(F)(F)F [Example 205, (S)-9-((S)-2-Hydroxy-propyl)-2-((R)-3-methylmorpholin-4-yl)-8-trifluoromethyl-6,7,8,9-tetrahydro-pyrimido[1,2-a]-pyrimidin-4-one]
21 | < 10 nM | CO[C@H](CN1c2nc(N3C[C@H]4CC[C@@H](C3)O4)cc(=O)n2CC[C@H]1C(F)(F)F)c1ccccc1 [Example 206, (S)-9-((S)-2-Methoxy-2-phenylethyl)-2-(1R,5S)-8-oxa-3-aza-bicyclo[3.2.1]oct-3-yl-8-trifluoromethyl-6,7,8,9-tetrahydro-pyrimido[1,2-a]-pyrimidin-4-one]
